For experiment [1], the system named is A549. Nature of the experiment: Induction of cell cycle arrest in human A549 cells assessed as accumulation of cells at G1/G0 phase at 2 uM incubated for 24 hrs by flow cytometric analysis (reference value: 51.49 %). In kind it is functional. (In general: A flow cytometer gives signals particle by particle.)
The test system of experiment [2] is A549. Nature of the experiment: Induction of cell cycle arrest in human A549 cells assessed as accumulation of cells at S phase at 2 uM incubated for 24 hrs by flow cytometric analysis (reference value: 31.31 %). In kind it is functional.
Experiment [3] deals with A549. Nature of the experiment: Induction of cell cycle arrest in human A549 cells assessed as accumulation of cells at G2/M phase at 2 uM incubated for 24 hrs by flow cytometric analysis (reference value: 17.2 %). In kind it is functional.
The subject of experiment [4] is NCI-H1703. Nature of the experiment: Induction of cell cycle arrest in human NCI-H1703 cells assessed as accumulation of cells at G1/G0 phase at 2 uM incubated for 24 hrs by flow cytometric analysis (reference value: 42.06 %). In kind it is functional.
Experiment [5] has as its system NCI-H1703. Nature of the experiment: Induction of cell cycle arrest in human NCI-H1703 cells assessed as accumulation of cells at S phase at 2 uM incubated for 24 hrs by flow cytometric analysis (reference value: 28.06 %). In kind it is functional.
Experiment [6] deals with NCI-H1703. Nature of the experiment: Induction of cell cycle arrest in human NCI-H1703 cells assessed as accumulation of cells at G2/M phase at 2 uM incubated for 24 hrs by flow cytometric analysis (reference value: 29.88 %). In kind it is functional.
Experiment [7] has as its system A549. Nature of the experiment: Cytotoxicity against human A549 cells assessed as reduction in cell viability incubated for 48 hrs by MTT assay. The following applies: A549, 48 h. In kind it is functional, cell-based.
The subject of experiment [8] is MDA-MB-231. Nature of the experiment: Cytotoxicity against human MDA-MB-231 cells assessed as reduction in cell viability incubated for 48 hrs by MTT assay. The following applies: MDA-MB-231, 48 h. In kind it is functional, cell-based. On the technique in general: Tetrazolium assays rely on reduction of a dye to a coloured formazan, in cell work by metabolically active cells.

Experiment [9] relates to MDA-MB-435. Nature of the experiment: Cytotoxicity against human MDA-MB-435 cells assessed as reduction in cell viability incubated for 48 hrs by MTT assay. In kind it is functional, cell-based. The following applies: MDA-MB-435, 48 h.
The test system of experiment [10] is SNB-19. Nature of the experiment: Cytotoxicity against human SNB-19 cells assessed as reduction in cell viability incubated for 48 hrs by MTT assay. In kind it is functional, cell-based. The following applies: SNB-19, 48 h.
In experiment [11] the test system is HCT-116. Nature of the experiment: Cytotoxicity against human HCT-116 cells assessed as reduction in cell viability incubated for 48 hrs by MTT assay. In kind it is functional, cell-based. The following applies: HCT-116, 48 h.
For experiment [12], the system named is PC-3. Nature of the experiment: Cytotoxicity against human PC-3 cells assessed as reduction in cell viability incubated for 48 hrs by MTT assay. In kind it is functional, cell-based. The following applies: PC-3, 48 h.

As to `CC(=O)c1c(C)c2cnc(Nc3ccc(N4CCNCC4)cn3)nc2n(C2CCCC2)c1=O` [PALBOCICLIB], the Activity amounted to 89.43% in experiment [1]; 5.87% in experiment [2]; 4.7% in experiment [3]; 72.21% in experiment [4]; 6.88% in experiment [5]; 20.91% in experiment [6].
By IC50 is commonly meant the concentration that gives 50% inhibition. As for `C/C=C/[C@@H]1Oc2c(-c3ccccc3)cn(O)c(=O)c2[C@@H]2[C@H]1CCC[C@H]2C`, the 50% inhibitory concentration (IC50) in experiment [7] was 32.7 µM; in experiment [8], 20.1 µM; in experiment [9] it was 20.3 µM; in [10] it was 20.3 µM; in experiment [11] it was 14.4 µM; in experiment [12] it was 49.1 µM.
As to `CC[C@H](C)C[C@@H](C)/C=C(\C)[C@@H]1O[C@H](c2c(O)c(-c3ccccc3)cn(C)c2=O)CC[C@H]1C`, the half-inhibitory concentration (IC50) in experiment [7] is 9.51 µM; in experiment [8], 7.84 µM; in [9], 24.6 µM; in experiment [10], 5.76 µM; in experiment [11], 2.45 µM; in [12], 16.3 µM.
Turning to `C/C=C/[C@@H]1Oc2c(-c3ccccc3)c[nH]c(=O)c2[C@@H]2[C@H]1CCC[C@H]2C`, the concentration for half-maximal inhibition (IC50) in experiment [7] is above 50 µM; in [8], above 50 µM; in experiment [9], 29.5 µM; in experiment [10] it was 13.4 µM; in [11] it was 16.8 µM; in experiment [12], 36.1 µM.
With `CC[C@H](C)C[C@@H](C)/C=C(\C)[C@@H]1O[C@H](c2c(O)c(-c3ccccc3O)cn(C)c2=O)CC[C@H]1C`, the IC50 in experiment [7] was above 50 µM; in experiment [8], 12.7 µM; in experiment [9], 6.95 µM; in [10], above 50 µM; in experiment [11] it was 7.57 µM; in experiment [12], 18.6 µM.
As to `CC[C@H](C)C[C@@H](C)/C=C(\C)[C@@H]1O[C@H](c2c(O)c(-c3ccc(O)cc3)cn(C)c2=O)CC=C1C`, the half-inhibitory concentration (IC50) in [7] is 48.9 µM; in [8], 43.1 µM; in [9], 34.9 µM; in [10], 40.4 µM; in experiment [11], 29.2 µM; in experiment [12] it was above 50 µM.
Take `CC[C@H](C)C[C@@H](C)/C=C(\C)[C@@H]1O[C@H](c2c(O)c(-c3ccc(O)cc3)cn(C)c2=O)CC[C@]1(C)O`: the half-inhibitory concentration (IC50) in [7] was 11.1 µM; in experiment [8], 8.49 µM; in [9], 6.15 µM; in [10], above 50 µM; in experiment [11] it was 10.5 µM; in experiment [12] it was 8.1 µM.
For `CC[C@H](C)C[C@@H](C)/C=C(\C)[C@H]1O[C@@H](c2c(O)c(-c3ccccc3)c[nH]c2=O)CC=C1C`, the concentration for half-maximal inhibition (IC50) in experiment [7] came to 3.81 µM; in [8], 5.28 µM; in experiment [9], 9.02 µM; in experiment [10], 6.76 µM; in experiment [11] it was 1.76 µM; in [12], 2.18 µM.
As to `CC[C@H](C)C[C@@H](C)/C=C(\C)[C@@H]1O[C@H](c2c(O)c(-c3ccc(O)cc3)cn(C)c2=O)CC[C@H]1CO`, the IC50 in experiment [7] is 8.41 µM; in experiment [8] it was above 50 µM; in experiment [9] it was 2.3 µM; in [10], above 50 µM; in experiment [11], 10.5 µM; in experiment [12], above 50 µM.
On to `CC[C@H](C)C[C@@H](C)/C=C(\C)[C@@H]1O[C@H](c2c(O)c(-c3ccccc3)c[nH]c2=O)CC[C@H]1C`, for which the IC50 is 3.89 µM in [7]; 5 µM in experiment [8]; 7.29 µM in experiment [9]; above 50 µM in [10]; above 50 µM in experiment [11]; 11.4 µM in experiment [12].
In the case of `CC[C@H](C)C[C@@H](C)/C=C(\C)[C@@H]1O[C@H](c2c(O)c(-c3ccc(O)cc3)c[nH]c2=O)CC[C@H]1C`, the IC50 was 3.46 µM in experiment [7]; 4.4 µM in [8]; 10 µM in experiment [9]; above 50 µM in [10]; 2.51 µM in [11]; 6.65 µM in [12].
Regarding `CC[C@H](C)C[C@@H](C)/C=C(\C)[C@@H]1O[C@H](c2c(O)c(-c3ccc(O)cc3)cn(C)c2=O)CC[C@H]1C`, the IC50 is 14.9 µM in [7]; 14.9 µM in experiment [8]; 9.41 µM in experiment [9]; 9.04 µM in experiment [10]; 7.74 µM in [11]; 43 µM in experiment [12].

For the origin of these results see ChEMBL document CHEMBL5500339, “4-Hydroxy-2-pyridone derivatives with antitumor activity produced by mangrove endophytic fungus Talaromyces sp. CY-3” (Eur J Med Chem, 2024).
